Key:
[1] = Improvement of hair straightening: leave-in post-treatment of alkaline-straightened hair, visual observation; conditions: 5% by weight in distilled water
Text: Applied to hair (originally curly hair of curliness IV) straightened by an alkaline hair-straightening product (Goldys—2% active sodium hydroxide) is the following composition, with an amount of product/amount of hair ratio (g/g) of 2, without rinsing: • 5% by weight of compound (2) from Example 2 • qs for 100% distilled water
Observations are made at T0.
The locks are then washed once or 5 times using Ultra Mild shampoo (Garnier), then dried. Observations are made at T1 (after 1 shampoo wash) and at T5 (after 5 shampoo washes).
The control locks are treated with a composition comprising 100% distilled water.

[2] = Porosity measurement of the locks of hair using a fluorescent probe; conditions: after 5 shampoo washes, 5% by weight in distilled water

Cc1cc(=O)nc(NC(=O)NCCCN(C)C)[nH]1 [Compound 2, N-[3-(dimethylamino)propyl]-N′-(6-methyl-4-oxo-1,4-dihydropyrimidin-2-yl)urea]
hair-straightening efficiency compared to control post-treatment (distilled water) ([1]; T0, product/hair ratio 2 g/g, no rinsing, hair straightened with 2% sodium hydroxide product): improved | persistence of the improvement in hair-straightening efficiency after shampoo washes ([1]; T1 (after 1 shampoo wash) and T5 (after 5 shampoo washes)): persists | internal porosity of the hair versus control hair [2]: equivalent porosity

— patent US11141368B2, “Cosmetic composition, cosmetic treatment method, kit, and compound” (L'OREAL, priority 2010, dated 2021)
